Patent US20100111943A1, “COMPOSITIONS AND METHODS FOR INHIBITING CANCER METASTASIS” (Medical College of Georgia Research Institute, Inc, priority 2007, published 2010)
Entries after “also recorded” stand apart in the source; their conditions may differ.

What was measured:
F-hsp90α = test: Acetylation of F-hsp90α in HEK293 cells (immunoprecipitation, anti-AcK immunoblot); assay type: cell-based; settings: HEK293 cells with ectopic expression of FLAG (F)-hsp90α
Experimental: Following culture in the plates for 24 hours, cells were transfected by Lipofectamine Plus following the protocol provided by Invitrogen (Carlsbad, Calif.). Transfected cells were cultured in full-medium containing drugs dissolved in DMSO or vehicle for 24 hours. Cellular extracts were prepared by directly adding lysis buffer (25 mM Tris-phosphate, pH 7.8, 2 mM DTT, 2 mM 1,2-diaminocyclohexane-N′,N′,N′,N′-tetraacetic acid, 10% glycerol, 0.2% Triton X-100) to the cells on ice. For immuno-precipitations (IP), 2×10^6 cells in 100 mm dishes were transfected and/or treated as described above. Cellular extracts were prepared and immunoprecipitation performed as described 24. For immunoblotting, cellular extracts or immunoprecipitates were separated on SDS-PAGE, transferred to a nitrocellulose membrane, probed with antibodies, and visualized with enhanced chemiluminescence, as described (Chen, Z., et al., Mol. Pharmacol., 69:1527-33 (2006)).
Hsp90 is acetylated both in vitro and in vivo. […] To determine whether p300 acts as the HAT for hsp90α, following incubation with p300 and acetyl-CoA, in vitro translated hsp90α was analyzed for its acetylation status by Western analysis with anti-AcK antibody. p300 was necessary for the acetylation of hsp90α in the in vitro assay. […] In HEK293 cells, it was determined that p300 can be coimmunoprecipitated with hsp90α. […]

hsp90α [1] = target: T1, hsp90α (Homo sapiens, UniProt P07900); test: Biotinylated-geldanamycin (B-GA) binding assay, MDA-MB-468 cell lysates
T1 construct: acetylation of the endogenous hsp90α due to treatment with LBH589; endogenous in cells; host or cells: MDA-MB-468
Experimental: (§1) Biotinylated (B)-GA binding to hsp90 was assessed as described previously 26. Briefly, cell-lysates were incubated with or without 17-AAG (Developmental Therapeutics Branch of CTEP/NCI/NIH) for 1 hour at 4° C., and then incubated with B-GA to displace 17-AAG from hsp90 for another 1 h. GM-bound hsp90 was captured by biotin-GA linked to streptavidin Mutein Matrix (Roche Diagnostics, Indianapolis, Ind.) for 1 h at 4° C. The unbound supernatant was removed and the beads were washed three times with lysis buffer. The precipitates were immunoblotted for hsp90.
Cell lysates containing hsp90α and ATP-sepharose were also incubated with B-GA followed by streptavidin coated agarose beads and eluted proteins were analyzed with anti-F antibody. […] MB-468 cells cultured in DMEM medium containing 10% FBS were treated with the indicated concentration of LBH589 for 16 hours. Following this, cell lysates were incubated with B-GA followed by streptavidin coated agarose beads and eluted proteins were analyzed with anti-hsp90α antibody. Acetylation and expression level of endogenous hsp90 were detected with anti-AcK and anti-hsp90 antibody, respectively.
MB-468 cells ectopically expressing F-hsp90α were treated with 100 nM of LBH589 for 16 hours. Following this, equal amount of cell lysates were incubated with 0, 5, 10 or 50 nM of 17-AAG for 30 min at 4° C., followed by incubation with B-GA and streptavidin-coated agarose beads. Precipitates from streptavidin coated beads were analyzed with anti-F antibody.

K/R mutants of hsp90α = test: B-GA binding assay, HEK293 lysates expressing F-hsp90 K/R substitutions
Experimental: as §1
Following treatment with either vehicle or 100 nM of LBH, cell lysates from HEK293 cells expressing F-hsp90 or K/R substitutions were incubated with vehicle or 50 nM of 17-AAG followed by incubation with B-GA and streptavidin coated agarose beads. Precipitates from streptavidin coated beads were analyzed with anti-F antibody.

hsp90α [2] = test: Export and extracellular localization of hsp90α from serum-starved T47D cells (immunoblot of medium); assay type: cell-based
Excerpt: Previous reports have shown that the inducible isoform hsp90α, but not hsp90β, can be secreted and found on the surface of cancer cells, although it lacks the classical signal sequence (Eustace, B. K., et al., Nat Cell Biol., 6:507-14 (2004); Eustace, B. et al., Cell Cycle., 3:1098-1100 (2004)). […] Concentrated extra-cellular medium or cell lysates from T47D cells, which were either serum-starved or cultured in 10% FBS, were immunoblotted with anti-hsp90α antibody. β-actin served as a loading control. Under starvation, both endogenous and exogenous hsp90α are secreted from T47D cells in the acetylated form. Extra-cellular hsp90α was immunoprecipitated with anti-AcK antibody and immunoblotted with either anti-hsp90α or M2 antibody.
To further verify this, the export and extracellular location of acetylation mimetic (K/Q) or acetylation-resistant (K/R) mutants transfected into T47D cells that were cultured under serum-free condition were determined. In serum-starved T47D cells, K/R substitutions at K69, K100 and K558 decrease, while K/Q substitutions increase the level of extracellular hsp90α. Supernatants of serum starved T47D cells transfected with the F-tagged hsp90α mutant constructs K69Q, K100Q, K292Q, K327Q, K478Q, K546Q, and K558Q were concentrated and immunoblotted with anti-F antibody. Coomassie-stained non-specific proteins served as the loading control. […]

MB-231 cells = test: In vitro matrigel invasion assay, MB-231 cells; assay type: cell-based; settings: 10, 20, 40 nM LBH589 (FIG. 1A)
Experimental: In vitro invasion assay were performed, as previously described 12, 27 by using the Cultrex® Cell Invasion Assay kit (RandD Systems, Minneapolis, Minn.). In brief, serumstarved cells in 50 μL serum-free medium with or without antibody or IgG were placed in the top chamber and allowed to invade for 24 hours. The lower chambers (assay chamber) were filled with 10% FBS medium. After incubation, migrated cells on the […] chamber of the membrane were dissociated with cell dissociation solution containing Calcein AM at 37° C. for 1 hour and read the bottom plate at 485 nm excitation and 520 nm emission.
The effect of anti-hsp90α with anti-Ac-K69 hsp90α antibody on the in vitro invasiveness of MB-231 breast cancer cells was compared. Serum-starved MB-231 cells treated with 20 μg/mL anti-hsp90α or anti-AcK69 hsp90α antibody were used for determining in vitro matrigel invasion (see Example 4 for protocol). Untreated cells, or cells treated with IgG were used as controls.

[3] = tested on: acetylated hsp90α with MMP-2; test: Extracellular co-immunoprecipitation of acetylated hsp90α with MMP-2, MDA-MB-231 supernatant; assay type: cell-based; settings: supernatant of serum starved LBH treated MDA-MB-231 cells
Experimental: Supernatant of serum starved LBH treated MDA-MB-231 cells was concentrated and immunoprecipitates with anti-hsp90α antibody were immunoblotted with anti-AcK, anti-MMP-2 or hsp90α antibody. […] Whether increased extracellular location of K69Q, K100Q or K558Q mutant promotes in vitro invasiveness of breast cancer cells was determined. For this, stable transfectants of MB-468 cells expressing the wild-type hsp90α we created, or the K/Q or K/R mutants of hsp90α at the residues K69, K100 and K558, and their in vitro invasiveness in the matrigel-based assay was evaluated.

acetylated hsp90α = test: Confocal microscopy of membrane-associated acetylated hsp90α, MB-231 cells; assay type: cell-based; settings: serum-starved MB-231 cells, 40 nM LBH589 for 16 hours, anti-Ac-K69 staining
Experimental: MDA-MB-231 cells were cultured in a chamber slide in RPMI medium with 10% FBS or under serum-free conditions with or without 40 nM LBH589 for 16 hours and stained with anti-acetyl (Ac)-[…] antibody. Briefly, after 16 hours incubation, cells were washed with PBS and fixed with 4% paraformaldehyde for 10 minutes. Following this, the slides were blocked with 3% BSA for 30 minutes and incubated with primary antibody at a dilution of 1:100 in blocking buffer for 2 hours. Following three washes with PBS the slides were incubated in Alexa Fluor 488 anti-rabbit secondary antibody (Molecular probes, Invitrogen) for one hour at 1:3000 dilution. After three washes with PBS, the cells were counterstained with DAPI using Vectashield mountant with DAPI and imaged using Zeiss LSM510 confocal microscope. […] Serum-starved MB-231 cells were treated with 40 nM LBH589 for 16 hours, followed by staining with anti-AcK69 hsp90α antibody and confocal microscopy. Cells cultured in RPMI with 10% FBS and cells stained with rabbit IgG served as controls.

hsp90α [4] = test: Acetylation of hsp90α in MB-231 cells (immunoblot with anti-AcK69-hsp90α antibody); assay type: cell-based; settings: MB-231 cells treated with LBH589
Excerpt: Next, a polyclonal antibody was generated against the acetylated K69-containing peptide of hsp90α (anti-Ac-K69). The specificity of the antibody was confirmed by determining its ability to detect the increase in the acetylation of the ectopically expressed […] hsp90α following treatment with the HDAC inhibitor LBH589. MB-231 cells were transfected with F-hsp90α followed by the treatment with LBH589. Immunoprecipitates of F-hsp90α with anti-M2 conjugated beads were immunoblotted with anti-K69-hsp90α antibody for the acetylation status and anti-F antibody for F-hsp90α expression. Cells transfected with empty vector followed the treatment with LBH589 served as control for specificity. Acetylation of endogenous hsp90αinduced by LBH589 was also detected with anti-AcK69-hsp90α antibody. Immunoprecipitates of endogenous hsp90α with anti-hsp90α antibody from cell lysates of MB-231 cells treated with or without LBH589 were immunoblotted with either anti-AcK69-hsp90α or anti-hsp90α (rabbit) antibody. IgG served as the control for specificity of the immunoprecipitates.

Row | Compound | acetylation of F-hsp90α (F-hsp90α) | B-GA binding of hsp90α (hsp90α [1]; MDA-MB-468 cells treated with LBH589 for 16 hours) | 17-AAG binding to acetylated endogenous hsp90 (hsp90α [1]; MDA-MB-468 cells, 100 nM LBH589 for 16 hours, then lysates with 0, 5, 10 or 50 nM 17-AAG) | B-GA binding of K/R mutants of hsp90α (K/R mutants of hsp90α; HEK293 cells, 100 nM LBH) | export and extracellular location of K/R mutants of hsp90α (hsp90α [2]; serum-starved T47D cells transfected with K/R mutants, cotreatment with LBH589) | export and extracellular localization of hyper-acetylated hsp90α (hsp90α [2]; serum-starved T47D cells, 0, 25, 50 or 100 nM LBH589) | matrigel invasion by MB-231 cells (MB-231 cells) | extra-cellular binding of acetylated hsp90α with MMP-2 [3] | levels of membrane associated acetylated hsp90α (acetylated hsp90α) | acetylated hsp90α detected by anti-Ac-K69 hsp90α antibody (hsp90α [4]) | displacement of B-GA binding to hsp90 (hsp90α [1]; lysates incubated with 0, 5, 10 or 50 nM 17-AAG for 30 min at 4° C., cells exposed or unexposed to LBH589) | 17-AAG binding to K/R mutants (displacement of B-GA) (K/R mutants of hsp90α; HEK293 lysates after 100 nM LBH, 50 nM 17-AAG)
1 | Cc1[nH]c2ccccc2c1CCNCc1ccc(/C=C/C(=O)NO)cc1 [LBH589] | hyper-acetylation of F-hsp90α | increase in B-GA binding of hsp90α | promoted 17-AAG binding to the acetylated endogenous hsp90 | increased binding to B-GA | increased the export and extracellular location of K/R mutants of hsp90α to a variable extent; also recorded: promote extracellular localization of K/R mutants of hsp90α | promoted and increased the export and extracellular localization of hyper-acetylated hsp90α; also recorded: occurs in a dose dependent manner | dose dependently increased matrigel invasion | increased extra-cellular binding of acetylated hsp90α with MMP-2 | increased levels of the membrane associated acetylated hsp90α | increase in the acetylated hsp90α | – | –
2 | 17-allylamino-17-demethoxygeldanamycin [17-AAG] | – | – | – | – | – | – | – | – | – | – | B-GA binding to hsp90 was reduced by 17-AAG treatment | decreased binding of K/R mutants to 17-AAG
3 | O=C(CCCCCCC(=O)Nc1ccccc1)NO [vorinostat] | hyper-acetylation of F-hsp90α | – | – | – | – | – | – | – | – | – | – | –
